The test system of assay [1] is LPS-induced ALI mice. Nature of the assay: LPS-induced ALI model: pulmonary vascular permeability by Evans blue dye. The assay is classed as in vivo, Balb/c mice. The settings on record: CT-NA 10 mg/kg (P<0.05) or 30 mg/kg (P<0.01), Dex 1 mg/kg (P<0.01). The procedure: Evans Blue was a dye that could quickly bind to albumin and was remains restricted within blood vessels because the endothelium was impermeable to albumin under normal physiological conditions. Pulmonary microvascular permeability was assessed by measuring the extravasation of Evans blue dye in the lungs. The method was briefly described as follows. The mice were randomly divided into control group (12 mice) and LPS group (48 mice). The LPS group (48 mice) was further divided into four subgroups (each subgroup contains 12 mice). To measure pulmonary microvascular permeability, the unanaesthetized mice of LPS group received intragastric instillation of NS, CT-NA at 10 mg/kg or 30 mg/kg, or Dex at 1 mg/kg respectively. One hour later, the anaesthetized mice were intratracheally instilled with NS (control group) and LPS (all LPS subgroups) at 10 μl/10 g of body weight. […] And then the absorbance of the Evans blue dye extracted in the supernatant was measured against formamide blank at 620 nm via standard curve method, and expressed as microgram of dye per 100 mg of wet lung weight. In addition, the concentration of albumin in BALF was measured at 628 nm using a spectrophotometer and an albumin measurement kit. The albumin concentration ratio assessed from BALF represented not only the albumin level but also the permeability of the pulmonary microvascular.

The subject of assay [2] is NF-κB signalling pathway in the lung of LPS-induced ALI mice. Nature of the assay: Western blotting of NF-κB signalling pathway, lung tissue of ALI mice. It counts as in vivo, Balb/c mice. The settings on record: CT-NA 10 mg/kg or 30 mg/kg. As to the method:
Specific pathogen-free (SPF) Balb/c mice (♂/♀; 20-26 g; 8 weeks old) were purchased from Shanghai SIPPR-BK Experimental Animal Co., Ltd. Mice were kept in an isolated ventilated cage in an environment of 40-60% humidity, 24±2° C., and 12 hrs/12 hrs dark-light cycle, and had free access to food and water. The method for preparing the LPS-induced ALI model was simply described as follows. The mice were randomly divided into a control group (12 mice) and an LPS group (48 mice). The LPS group (48 mice) was further divided into four subgroups (12 mice in each subgroup). The unanaesthetized mice in the four subgroups of LPS were intragastrically administered with normal saline (NS), CT-NA at 10 mg/kg or 30 mg/kg, and Dex at 1 mg/kg, respectively. One hour later, the mice were anesthetized with sodium pentobarbital (intraperitoneal injection at 40 mg/kg), and then subjected to intratracheal instillation of NS to control group and LPS (4 mg/kg) to all LPS subgroups. 12 hrs later, the unanaesthetized mice of the LPS group were intragastrically administered with NS, CT-NA at 10 mg/kg or 30 mg/kg, or Dex at 1 mg/kg, respectively (FIG. 16). […] 24 hrs after LPS challenge, the oxygen saturation (SO2) of all mice was measured by a Moor VMS-OXY™ instrument which measured SO2 (%) in the microcirculation at the wavelength range of 500 to 650 nm. […]
(In general: In western blotting, separated proteins are transferred to a membrane and probed.)

Each structure is given as a SMILES string.

Consider `CN([C@@H]1CCc2c(CC(=O)[O-])c3cccnc3n2C1)S(=O)(=O)c1ccc(F)cc1.[Na+]` [Sodium salt hydrate], for which the “LPS-induced pulmonary vascular leakage and extravasation of Evans Blue dye” value in assay [1] is listed as “significantly reduced”. Further, the “degradation of IκBα and P65 induced by LPS” value in assay [2] is given as “strongly reversed”. For the same compound, the “LPS-induced IκBα and P65 activation” value in assay [2] (dose-dependent) is “reduced”.

These data come from patent US20220098197A1, “SALTS OF HETEROCYCLIC COMPOUND AND USE THEREOF” (priority 2019, published 2022).
